Assay results as given in article PMC5355877, “The development of novel LTA4H modulators to selectively target LTB4 generation” (Scientific Reports, 2017).
“Also recorded” adds a separate entry of the source. Where two headings read alike, the source gives them in different places. Values belong to the compound of their own block, whether it stands above or below them.

Experiments:
[1] = biological target: T1, LTA4H epoxide hydrolase activity (LTB4 generation) (Mus musculus, UniProt P24527); test: LTA4H epoxide hydrolase activity: LTB4 generation by A23187-treated murine bone marrow neutrophils (EIA); type: cell-based
T1 construct: endogenous in cells; host or cells: murine bone marrow neutrophils
T1 sequence (P24527 1-611): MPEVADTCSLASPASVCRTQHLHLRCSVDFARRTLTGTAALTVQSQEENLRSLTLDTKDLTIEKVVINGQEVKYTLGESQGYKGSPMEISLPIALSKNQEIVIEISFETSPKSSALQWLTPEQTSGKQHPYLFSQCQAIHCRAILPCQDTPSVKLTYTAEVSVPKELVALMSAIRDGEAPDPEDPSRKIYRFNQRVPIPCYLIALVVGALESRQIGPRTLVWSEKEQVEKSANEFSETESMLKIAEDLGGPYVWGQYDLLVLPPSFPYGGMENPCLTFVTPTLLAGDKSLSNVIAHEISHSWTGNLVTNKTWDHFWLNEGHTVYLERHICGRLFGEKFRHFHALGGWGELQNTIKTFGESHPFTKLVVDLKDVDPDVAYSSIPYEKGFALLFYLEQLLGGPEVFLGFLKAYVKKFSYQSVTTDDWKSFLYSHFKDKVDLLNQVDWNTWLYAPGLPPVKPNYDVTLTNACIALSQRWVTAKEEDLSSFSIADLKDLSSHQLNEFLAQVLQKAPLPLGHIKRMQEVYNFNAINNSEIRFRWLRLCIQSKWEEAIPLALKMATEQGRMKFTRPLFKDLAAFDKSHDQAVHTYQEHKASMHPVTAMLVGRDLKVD
Experimental: To isolate murine bone marrow neutrophils, the femur and the tibia from both hind legs were removed and freed of soft tissue attachments, and the extreme distal tip of each extremity cut off. HBSS containing 15 mM EDTA and 30 mM HEPES was forced through the bone with a syringe. After dispersing cell clumps and passage through a […] sieve (BD labware, New Jersey), red blood cells were lysed by resuspending pellets in ACK buffer (for 3 minutes at room temperature) before centrifugation (800 × g, 5 min) and washing with HBSS. The cell suspension was centrifuged (800 × g, 5 min, 4 °C) and resuspended in RPMI.
1% DMSO was used as a control. Cells were incubated for 20 minutes at 37 °C, and the reaction was terminated by centrifugation (600 × g, 5 min, 4 °C). Supernatants were removed and stored at −80 °C for subsequent LTB4 analysis. The concentration of LTB4 generated in the epoxide hydrolase activity assay was assayed using an EIA, according to manufacturer’s directions (R&D systems, Minneapolis, MN). Test compounds were assayed in a blinded manner by an investigator during determination of effect on LTA4H epoxide hydrolase activity.

[2] = biological target: T2, recombinant human LTA4H (aminopeptidase, PGP substrate) (Homo sapiens, UniProt P09960); test: LTA4H aminopeptidase activity: PGP degradation by recombinant human LTA4H; type: biochemical
T2 construct: purchased Cayman Chemicals
T2 sequence (P09960 1-611): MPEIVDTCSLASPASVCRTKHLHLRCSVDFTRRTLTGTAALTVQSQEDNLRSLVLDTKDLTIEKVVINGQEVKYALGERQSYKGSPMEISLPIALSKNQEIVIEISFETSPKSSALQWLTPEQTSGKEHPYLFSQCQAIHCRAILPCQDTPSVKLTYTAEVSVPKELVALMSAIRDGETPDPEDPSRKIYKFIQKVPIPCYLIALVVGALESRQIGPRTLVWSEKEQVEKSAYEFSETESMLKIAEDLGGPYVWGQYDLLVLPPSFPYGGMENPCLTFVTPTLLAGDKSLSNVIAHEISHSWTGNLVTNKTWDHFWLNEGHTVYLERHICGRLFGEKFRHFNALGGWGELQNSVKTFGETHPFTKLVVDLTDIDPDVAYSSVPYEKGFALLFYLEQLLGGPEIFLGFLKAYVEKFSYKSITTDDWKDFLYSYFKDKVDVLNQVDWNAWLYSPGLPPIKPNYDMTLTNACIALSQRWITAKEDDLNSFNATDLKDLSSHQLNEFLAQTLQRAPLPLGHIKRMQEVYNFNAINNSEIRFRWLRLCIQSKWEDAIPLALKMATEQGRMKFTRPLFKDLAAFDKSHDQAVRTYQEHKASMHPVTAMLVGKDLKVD
Experimental: (§1) For peptide quantification in serum, PGP and AcPGP were measured using a MDS Sciex API-4000 spectrometer (Applied Biosystems, Foster City, CA) equipped with a Shimadzu HPLC (Columbia, MD). For peptide quantification from degradation experiments, PGP and AcPGP were measured using a Thermo Accela Pump and Autosampler coupled to a Thermo TSQ Quantum Access. […] Peak area was measured, and PGP/AcPGP peptide concentrations were calculated using a relative standard curve method as previously described.
(§2) Mouse serum (diluted 1/10 in PBS) or recombinant human LTA4H (0.1 μg/ml; Cayman Chemicals, Michigan, USA) were incubated with 0.4 mM PGP at 37 °C in 5% CO2 for varying periods of time. Concentrations of PGP remaining were subsequently quantified by ESI-LC/MS/MS (as discussed above) by comparison with PGP standards. The percentage of peptide degraded was determined relative to control samples of 0.4 mM PGP alone. PGP degradation was also assessed by measurement of free proline released and its ensuing reaction with Ninhydrin (as discussed below). Test compounds were assayed in a blinded manner by an investigator during determination of the effect on LTA4H aminopeptidase activity.
To assess free proline liberated, aliquots from PGP degradation experiments were diluted 1 in 10 in PBS (to a final volume of 250 μl). Glacial acetic acid (250 μl) was then added, followed by 250 μl of ninhydrin solution (25 mg/ml in acetic acid/6 M phosphoric acid; heated at 70 °C to dissolve). The reaction mixture was heated at 100 °C for 60 minutes, allowed to cool to room temperature and the proline containing fraction extracted with 500 μl of toluene and optical density measured at 520 nm.

[3] = biological target: T3, LTA4H aminopeptidase activity (Ala-p-nitroanilide substrate) (Homo sapiens, UniProt P09960); design: method as in PMID 21983441; conditions: read-out: AC50 for augmenting aminopeptidase activity; cited from earlier work
T3 sequence (P09960 1-611): T2 sequence (P09960 1-611)

[4] = biological target: T3, LTA4H aminopeptidase activity (Ala-p-nitroanilide substrate); test: LTA4H aminopeptidase activity versus Ala-p-nitroanilide substrate; type: biochemical; conditions: in our hands
[5] = Mouse liver microsome stability; type: in vitro ADME; conditions: liver microsomes
Source text: (§3) ARM1 (4-(4-benzylphenyl)-1,3-thiazole-2-amine), compound 11 (7-hydroxy-3-(4-hydroxyphenyl)-4H-chromen-4-one) and compound 13 (7-hydroxy-3-phenyl-4H-chromen-4-one) were all purchased from VitasMLab (Kowloon, Hong Kong). […] All other compounds were custom synthesized by Peakdale Molecular as described in Supplementary Information. ADMET (absorption, distribution, metabolism, and excretion – toxicity) studies were also outsourced to Peakdale Molecular.

[6] = logD pH7.4; type: physicochemical; conditions: pH 7.4; read-out: logDpH7.4
Source text: as §3

[7] = Mouse plasma protein binding; type: in vitro ADME
Source text: as §3

[8] = Human liver microsome stability; type: in vitro ADME; conditions: liver microsomes
Source text: as §3

[9] = Human plasma protein binding; type: in vitro ADME
Source text: as §3

[10] = system: serum PGP; test: Absolute serum PGP concentrations after oral dosing of mice; type: in vivo; conditions: 10 mg/kg orally, naïve female BALB/c mice, blood 4 h after dosing
Experimental: (§4) Blood was obtained from mice 4 h after oral dosing and downstream analysis performed blinded by an independent researcher. […] The reaction was terminated by centrifugation (600 × g, 5 min, 4 °C). Supernatants were analyzed for LTB4 by EIA (see below). To assess inhibition of aminopeptidase activity, PGP degrading capacity of serum was assessed as detailed below. Furthermore, absolute concentrations of PGP in serum was determined as detailed below.
as §1

[11] = system: serum aminopeptidase PGP-degrading activity; test: Serum aminopeptidase PGP-degrading activity after oral dosing of mice; type: in vivo; conditions: 10 mg/kg orally, naïve female BALB/c mice, blood 4 h after dosing
Experimental: as §4, §2

[12] = system: LTB4 generation; conditions: oral administration to naïve mice; cited from earlier work
[13] = LTB4 generation, murine neutrophils, Table 2, read-out: Epoxide Hydrolase IC50 ± SEM
[14] = PGP degradation, Table 2, read-out: Aminopeptidase IC50 ± SEM
[15] = LTB4 generation, murine neutrophils, Table 1, read-out: Epoxide Hydrolase IC50 ± SEM
[16] = PGP degradation, Table 3, read-out: Aminopeptidase IC50 ± SEM
[17] = LTB4 generation, murine neutrophils, Table 3, read-out: Epoxide Hydrolase IC50 ± SEM

Structure (SMILES): Oc1ccc(/C=C\c2cc(O)cc(O)c2)cc1 [Compound 2, cis-Resveratrol]
- IC50 [1, 13]: 14.3 ± 2.1 µM

Structure (SMILES): COc1ccc(/C=C/c2cc(OC)cc(OC)c2)cc1 [Compound 3, trans-trismethoxy Resveratrol]
- IC50 [2, 14]: 68.8 ± 9.9 µM
- IC50 [1, 13]: 41.2 ± 5.5 µM

Structure (SMILES): CC(=O)Oc1ccc(/C=C/c2cc(OC(C)=O)cc(OC(C)=O)c2)cc1 [Compound 4, 5-[(1E)-2-[4-(acetyloxy)phenyl]ethenyl]-1,3-Benzenediol-1,3-diacetate]
- IC50 [2, 14]: > 100 µM
- IC50 [1]: 38.6 ± 5.9 µM

Structure (SMILES): COc1ccc(Cc2ccccc2)cc1 [Compound 4-MDM, 4-Methoxydiphenylmethane, reference compound]
- IC50 ([2]; PGP degradation, recombinant LTA4H, Table 1, read-out: Aminopeptidase IC50 ± SEM): 75.2 µM
- effect on aminopeptidase activity with physiological substrate PGP ([2]; PGP substrate): modest inhibition; also recorded: failed to augment PGP degradation
- AC50 [3]: 50 µM
- IC50 [1, 15]: 48.9 µM
- effect on aminopeptidase activity versus Ala-p-nitroanilide substrate [4]: did promote aminopeptidase activity

Structure (SMILES): COc1cc(O)cc(/C=C/c2ccc(O)cc2)c1 [Compound 5, 3-[(1E)-2-(4-hydroxyphenyl)ethenyl]-5-methoxyphenol hydrate]
- IC50 [2]: 99.5 ± 22.6 µM
- IC50 [1, 13]: 3.9 ± 0.4 µM

Structure (SMILES): COc1cc(O)cc(CCc2ccc(O)cc2)c1 [Compound 6]
- IC50 [2, 14]: > 100 µM
- IC50 [1, 13]: 6.4 ± 0.7 µM

Structure (SMILES): CCOc1cc(O)cc(CCc2ccc(O)cc2)c1 [Compound 7]
- IC50 [2, 14]: > 100 µM
- IC50 [1, 13]: 3.2 ± 0.7 µM

Structure (SMILES): CC(=O)NC1CC2CCC(C1)N2Cc1ccc(Oc2nc3ncccc3s2)cc1 (stereo not drawn) [JNJ-40929837]
- IC50 [2]: 0.0094 ± 0.0013 µM
- serum PGP [10]: serum accumulation of PGP
- IC50 [1]: 0.009 ± 9e-05 µM
- serum aminopeptidase PGP-degrading activity [11]: potently abrogates; also recorded: potently inhibited

Structure (SMILES): CN(CCCOc1ccc(Cc2ccccc2)cc1)CCC(=O)O.Cl [SC57461A, 3-[methyl[3-[4-(phenylmethyl)phenoxy]propyl]amino]propanoic acid HCl]
- inhibition of LTB4 generation in ex vivo whole blood assay [12]: potent inhibition
- serum PGP [10]: serum accumulation of PGP
- IC50 [1, 15]: 0.11 ± 0.0235 µM
- serum aminopeptidase PGP-degrading activity [11]: potently abrogates; also recorded: potently inhibited

The remaining lines, values ahead:

- IC50 [2, 14]: > 100 µM
- IC50 [1, 13]: 1.7 ± 0.25 µM
Structure (SMILES): COc1cc(O)cc(CCc2cccc(O)c2)c1 [Compound 8]

- IC50 [2, 16]: > 100 µM
- IC50 [1, 17]: 34.2 ± 4.7 µM
Structure (SMILES): O=C(Cc1ccc(O)cc1)c1ccc(O)cc1O [Compound 10, 1-(2,4-Dihydroxyphenyl)-2-(4-hydroxyphenyl)ethanone]

- microsomal CLint [5]: 8.9 ± 0.7 µL/min/mg
- half-life ([5]; read-out: Mouse liver microsomes t1/2): 1.3 ± 0.102 h
- IC50 [2, 16]: 62.7 ± 13.3 µM
- logD [6]: 1.24 ± 0.06
- fraction unbound [7]: 0.0723
- microsomal CLint [8]: < 5 µL/min/mg
- half-life ([8]; read-out: Human liver microsomes t1/2): > 2.32 h
- fraction unbound [9]: 0.0326
- IC50 [1, 17]: 7.3 ± 0.8 µM
- selectivity for hydrolase over peptidase inhibition ([1]; ratio of aminopeptidase to epoxide hydrolase IC50): > 8 fold
Structure (SMILES): O=c1c(-c2ccc(O)cc2)coc2c(O)c(O)ccc12 [Compound 12, 7,8,4′-trihydroxyisoflavone]

- IC50 [2, 16]: > 100 µM
- IC50 [1, 17]: 48.2 ± 14.6 µM
Structure (SMILES): O=c1c(-c2ccccc2)coc2cc(O)ccc12 [Compound 13, 7-hydroxy-3-phenyl-4H-chromen-4-one]

- IC50 [2, 16]: 20.6 ± 3.3 µM
- IC50 [1, 17]: 20.6 ± 2.4 µM
Structure (SMILES): O=c1c(-c2ccc(O)cc2)coc2c3c(ccc12)OCO3 [Compound 14]

- IC50 [2, 16]: 69.2 ± 10.9 µM
- IC50 [1, 17]: 1.2 ± 0.21 µM
Structure (SMILES): Cc1ccc2c(=O)c(-c3ccc(O)cc3)coc2c1O [Compound 15]

- IC50 [1, 15]: 0.68 ± 0.01 µM
Structure (SMILES): O=C(O)CCCN1CCC[C@H]1COc1ccc(Oc2ccc(Cl)cc2)cc1 [DG-051, 4-[(2S)-2-{[4-(4-chlorophenoxy)phenoxy]methyl}-1-pyrrolidinyl]butanoic acid, reference compound]
